Source: patent US12473537B2, “Three-dimensional cell culture, devices, and use thereof” (THE BROAD INSTITUTE, INC., priority 2020, dated 2025)

What was measured:
Assay type in all cases: cell-based, human
[1] = test system: pancreatic progenitor cells; test: Notch inhibition in DP, immunocytochemical staining for Pdx-1 and Nkx6.1; conditions: 10 μM, S4d5
Description: Next, Applicant further examined whether other junction signaling pathways critical for β-cell differentiation, such as the Notch signaling pathway, could be supported in the DP, as Notch inhibition in pancreatic progenitor cells is known to promote differentiation into the endocrine lineage and β-cell production. To measure this in the DP, Applicant supplemented the differentiation protocol of pancreatic progenitor cells with Notch inhibitor (NI) [γ-secretase inhibitor, N—[N-(3,5-Difluorophenacetyl)-L-alanyl]-S-phenylglycine t-butyl ester (DAPT) (10 μM)] and examined the cells at the end of pancreatic progenitor cells (stage 4 day 5 (S4d5)) by immunocytochemistry and gene expression analysis (FIGS. 8A-8D). […] Upon establishing the differentiation capabilities of the DP, Applicant then reasoned whether differentiated SC β cells also elicited proper insulin secretion functionality. The DP also supported insulin secretion from SC β cells in response to glucose stimulation, and similar secretion indices were noted between DP and SF (FIG. 3J).
Compound treatment. Cells were seeded into the DP and incubated with their respective media as outlined in the section above and allowed to settle for 24 hours (day 1). […] For the dose-cytotoxicity study, cell viability was measured by AlamarBlue™ assay following the manufacturer's protocol (Invitrogen, Carlsbad, CA, USA). […]

Notch signaling [2] = test: Notch inhibition in 2D culture, Hes1 gene expression; conditions: 10 μM
Description: (§1) Next, Applicant further examined whether other junction signaling pathways critical for β-cell differentiation, such as the Notch signaling pathway, could be supported in the DP, as Notch inhibition in pancreatic progenitor cells is known to promote differentiation into the endocrine lineage and β-cell production. To measure this in the DP, Applicant supplemented the differentiation protocol of pancreatic progenitor cells with Notch inhibitor (NI) [γ-secretase inhibitor, N—[N-(3,5-Difluorophenacetyl)-L-alanyl]-S-phenylglycine t-butyl ester (DAPT) (10 μM)] and examined the cells at the end of pancreatic progenitor cells (stage 4 day 5 (S4d5)) by immunocytochemistry and gene expression analysis (FIGS. 8A-8D). […]
(§2) Compound treatment. […] For the dose-cytotoxicity study, cell viability was measured by AlamarBlue™ assay following the manufacturer's protocol (Invitrogen, Carlsbad, CA, USA).
(§3) Gene Expression Analysis. […] The RNA concentration was determined by measuring absorbance at 260 nm using a spectrophotometer. […] The profiles of gene expression in SC β-cells were quantified for each target (human E-cad, CX-36, ZnT8, Pdx-1, Nkx6.1, Insulin, and glyceraldehyde 3-phosphate dehydrogenase (GAPDH), QuantiTect primary assay). The expression level of target genes was determined by the comparative Ct method, whereby the target is normalized to the endogenous reference (GAPDH) 40. […]

Notch signaling [3] = test: Notch inhibition in pancreatic progenitor cells in Disque platform (DP), qRT-PCR gene expression; conditions: 10 μM, 4 days, cells cultured in DP
Description: as §1, §2, §3

SC β cells [4] = test: Dose-cytotoxicity study, AlamarBlue assay; conditions: 0.032~500 μM
Protocol: Compound treatment. […] For compound treatment (ZnPDs and small molecule cargos), the media were replaced with new media supplemented with prodrug at different concentrations on day 3 and day 6 for a total treatment of 6 days. Cell analyses was performed after 7 days in culture. […] For the dose-cytotoxicity study, cell viability was measured by AlamarBlue™ assay following the manufacturer's protocol (Invitrogen, Carlsbad, CA, USA).
Cell viability test. To determine the viability of SC β-cells in the DP and SF, a Live/Dead Viability and Cytotoxicity Assay Kit (AlamarBlue™, Invitrogen) were used according to the manufacturer's instructions.

SC β cells [5] = test: Proliferation of SC β cells in DP (EdU or Ki67, flow cytometry)
Protocol: Applicant then compared ZnPD6 and harmine over the range of 0.625 to 20 μM based on the percentage of proliferating mature SC β cells using the c-peptide/EdU co-positive metric, wherein EdU is a proliferation marker that identifies cells undergoing DNA replication in the S phase (FIG. 5D). […] Despite releasing the same drug following ZnPD cleavage, Applicant were interested in determining what caused the difference in cytotoxicity and proliferation between ZnPD6 and unmodified harmine. Applicant then examined harmine and ZnPD6 at their optimal concentrations for proliferation, 10 μM and 20 μM, respectively.
Compound treatment. Cells were seeded into the DP and incubated with their respective media as outlined in the section above and allowed to settle for 24 hours (day 1). For compound treatment (ZnPDs and small molecule cargos), the media were replaced with new media supplemented with prodrug at different concentrations on day 3 and day 6 for a total treatment of 6 days. Cell analyses was performed after 7 days in culture. For targeting study with ZnPD4, cells were treated with ZnPD4 for 2 hours. […] For the dose-cytotoxicity study, cell viability was measured by AlamarBlue™ assay following the manufacturer's protocol (Invitrogen, Carlsbad, CA, USA).
Flow cytometry. […] Cells were analyzed using a BD FACSAria™ II flow cytometer (BD Biosciences, Franklin Lakes, NJ, USA). […]

DYRKIA = test: NFAT1 nuclear translocation as readout for DYRKIA inhibition
Protocol: Immunocytochemical staining. The Immunofluorescent staining was performed as previously described in the Flow cytometry section. The additional primary antibodies for immunocytochemical staining were used: rabbit polyclonal anti-NFAT1 (1:500, ab244310, Abcam, Cambridge, MA, USA), mouse monoclonal anti-E-cadherin (1:500, Abcam) and rabbit polyclonal anti-connexin 36 (1:500, Abcam). Secondary antibodies were stained using previously described antibodies noted within the flow cytometry method. Cells were then counter-stained with 4′, 6-Diamidino-2-phenylindole (DAPI, MilliporeSigma, Burlington, MA, USA) or 2,5′-Bi-1H-benzimidazole (Hoechst, Invitrogen). HTS imaging was performed using the Opera Phenix™ High Content Screening System (PerkinElmer, Waltham, MA, USA). Fluorescent and bright-field imaging were performed using the Eclipse TE2000-U (Nikon, Tokyo, Japan). Confocal imaging and z-stack 3D reconstruction were performed using LSM 800 with Airyscan (Zeiss, Oberkochen, Germany). Analysis was performed using ImageJ (NIH) and Adobe Photoshop (Adobe, San Jose, CA, USA) software.

Compound	Pdx-1-positive progenitor cells after Notch inhibition [1]	Hes1 expression response to Notch inhibition (Notch signaling [2])	increase in Pdx-1 expression (Notch signaling [3]; S4d5, vs control)	decrease in hairy and enhancer of split-1 (Hes1) expression (Notch signaling [3]; vs control)	concentration above which a cytotoxic effect is seen (SC β cells [4])	population of proliferating monohormonal SC β cells (C-peptide+GCG-EdU+) (SC β cells [5]; DP, flow cytometry, compared to DMSO control or negative control)	optimal concentration for proliferation (SC β cells [5]; SC β cells in DP)	NFAT1 nuclear translocation over time, in words (DYRKIA; FIG. 5H)	NFAT1 nuclear translocation (DYRKIA; at 24 hours)	NFAT1 nuclear translocation (DYRKIA; value before the decrease)
C[C@H](NC(=O)Cc1cc(F)cc(F)c1)C(=O)N[C@H](C(=O)OC(C)(C)C)c1ccccc1 [DAPT, N—[N-(3,5-Difluorophenacetyl)-L-alanyl]-S-phenylglycine t-butyl ester]	significantly increased	not responsive	80%	71%						
COc1ccc2c(c1)[nH]c1c(C)nccc12 [harmine]					over 10 μM	statistically significant increase	10 µM	decreased NFAT1 nuclear translocation after 4 hours	15%	26%
